The text below walks through data of publication PMC6923384, “Insights into the κ/ι-carrageenan metabolism pathway of some marine Pseudoalteromonas species” (Communications Biology, 2019).

For experiment [1], the target named is T1, GH167 (Pseudoalteromonas fuliginea, UniProt A0ABQ6RII1).
T1 construct: gene EU509_08810; residues 21-808, signal peptide removed, pET28a His-tag, E. coli BL21(DE3) Star
The experiment is described as follows: thin layer chromatography of products. It counts as biochemical. Particulars: hydrolysis of β-1,4-linkage to κ-NC2 and likely β-NC2.

The target of experiment [2] is T2, BovGH167 (Bacteroides ovatus, UniProt A0ABF7PI57).
T2 construct: gene HMPREF1069_02044; residues 26-775, synthetic codon-optimised gene, pET28a His-tag, E. coli BL21(DE3) Star
T2 sequence (A0ABF7PI57 26-775): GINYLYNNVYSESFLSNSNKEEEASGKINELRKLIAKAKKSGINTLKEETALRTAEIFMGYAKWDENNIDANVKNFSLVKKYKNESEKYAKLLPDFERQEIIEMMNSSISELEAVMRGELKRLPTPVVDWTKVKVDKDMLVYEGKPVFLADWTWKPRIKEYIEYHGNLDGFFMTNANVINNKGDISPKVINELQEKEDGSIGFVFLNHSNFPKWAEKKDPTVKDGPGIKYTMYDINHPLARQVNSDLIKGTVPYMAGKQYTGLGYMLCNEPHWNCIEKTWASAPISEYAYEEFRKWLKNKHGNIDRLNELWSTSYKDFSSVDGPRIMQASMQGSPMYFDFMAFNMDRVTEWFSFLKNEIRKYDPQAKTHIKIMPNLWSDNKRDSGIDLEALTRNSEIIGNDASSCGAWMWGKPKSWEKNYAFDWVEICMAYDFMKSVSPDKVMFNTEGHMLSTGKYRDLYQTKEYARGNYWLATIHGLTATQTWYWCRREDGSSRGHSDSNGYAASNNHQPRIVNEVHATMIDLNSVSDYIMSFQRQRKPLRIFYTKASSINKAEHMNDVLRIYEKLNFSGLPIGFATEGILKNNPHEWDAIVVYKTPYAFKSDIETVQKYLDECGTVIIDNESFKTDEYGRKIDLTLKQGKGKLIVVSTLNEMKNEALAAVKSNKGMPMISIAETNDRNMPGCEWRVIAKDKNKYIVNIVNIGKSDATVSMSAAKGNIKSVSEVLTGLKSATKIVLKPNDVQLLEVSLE
The experiment is described as follows: thin layer chromatography of products. It counts as biochemical. The following applies: hydrolysis of β-1,4-linkage to κ-NC2 and likely β-NC2 activity as GH167.

Experiment [3] has as its target DauA, 3,6-anhydro-D-galactose dehydrogenase from Pseudoalteromonas fuliginea PS47 (Pseudoalteromonas fuliginea PS47). The experiment is described as follows: crystal structure; hanging drop vapor-diffusion at 18 °C; N-terminal His-Tag cleaved with thrombin before crystallization.
In experiment [4] the target is S1_19B, exo-G4S κ-carrageenan sulfatase from Pseudoalteromonas fuliginea PS47 (Pseudoalteromonas fuliginea PS47). The experiment is described as above.
For experiment [5] the target is unchanged. The experiment is described as follows: not stated; in solution; method told only in Supplementary Notes (section 3) and Supplementary Fig. 7b-d.
Experiment [6] concerns the target T3, S1_19A (Pseudoalteromonas fuliginea, UniProt A0ABQ6RIU8).
T3 construct: gene EU509_08825; pET28a His-tag, E. coli BL21(DE3) Star with formylglycine generating enzyme; cloning described previously
The experiment in a line: product analysis, details in supplement. It is filed as biochemical. The following applies: removes 4-sulfate from G4S adjacent to the non-reducing end.

Experiment [7] concerns the target T4, S1_NC (Pseudoalteromonas fuliginea, UniProt A0ABQ6RIJ3, C84S).
T4 construct: gene EU509_08820; residues 34-507, signal peptide removed, pET28a N-terminal His-tag cut by thrombin for crystals, E. coli BL21(DE3) Star
The experiment is described as follows: crystal structure of the complex. It counts as binding. The following applies: crystal soaking; only the non-reducing end disaccharide (ι-NC2) modelled; active site.

The target of experiment [8] is T5, S1_19B (Pseudoalteromonas fuliginea, UniProt A0ABQ6RIL2, C77S).
T5 construct: gene EU509_08890; residues 28-473, signal peptide removed, pET28a N-terminal His-tag (cut by thrombin for crystals), E. coli BL21(DE3) Star with formylglycine generating enzyme; dimer
T5 sequence (A0ABQ6RIL2 entry or part of it C77S): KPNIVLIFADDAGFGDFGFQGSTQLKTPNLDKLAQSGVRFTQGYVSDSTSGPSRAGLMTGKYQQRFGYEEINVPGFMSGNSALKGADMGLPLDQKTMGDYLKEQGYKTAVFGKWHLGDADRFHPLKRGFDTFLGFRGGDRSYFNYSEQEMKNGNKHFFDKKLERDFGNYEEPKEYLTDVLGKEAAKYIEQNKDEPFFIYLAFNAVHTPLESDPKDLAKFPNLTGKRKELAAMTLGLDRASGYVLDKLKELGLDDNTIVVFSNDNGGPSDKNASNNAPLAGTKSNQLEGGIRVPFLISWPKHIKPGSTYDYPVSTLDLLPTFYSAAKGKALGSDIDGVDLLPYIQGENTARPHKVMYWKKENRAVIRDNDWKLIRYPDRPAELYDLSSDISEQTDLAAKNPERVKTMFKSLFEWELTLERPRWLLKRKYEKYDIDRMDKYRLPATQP
The experiment in a line: crystal structure of the complex. It counts as binding. The following applies: co-crystallization; inactive (non-productive) complex; C77S inferred from methods (mutants in complex with ligands).

The stoichiometry N is a count of units in the complex or per binding partner.

T1 sequence (A0ABQ6RII1 entry or part of it): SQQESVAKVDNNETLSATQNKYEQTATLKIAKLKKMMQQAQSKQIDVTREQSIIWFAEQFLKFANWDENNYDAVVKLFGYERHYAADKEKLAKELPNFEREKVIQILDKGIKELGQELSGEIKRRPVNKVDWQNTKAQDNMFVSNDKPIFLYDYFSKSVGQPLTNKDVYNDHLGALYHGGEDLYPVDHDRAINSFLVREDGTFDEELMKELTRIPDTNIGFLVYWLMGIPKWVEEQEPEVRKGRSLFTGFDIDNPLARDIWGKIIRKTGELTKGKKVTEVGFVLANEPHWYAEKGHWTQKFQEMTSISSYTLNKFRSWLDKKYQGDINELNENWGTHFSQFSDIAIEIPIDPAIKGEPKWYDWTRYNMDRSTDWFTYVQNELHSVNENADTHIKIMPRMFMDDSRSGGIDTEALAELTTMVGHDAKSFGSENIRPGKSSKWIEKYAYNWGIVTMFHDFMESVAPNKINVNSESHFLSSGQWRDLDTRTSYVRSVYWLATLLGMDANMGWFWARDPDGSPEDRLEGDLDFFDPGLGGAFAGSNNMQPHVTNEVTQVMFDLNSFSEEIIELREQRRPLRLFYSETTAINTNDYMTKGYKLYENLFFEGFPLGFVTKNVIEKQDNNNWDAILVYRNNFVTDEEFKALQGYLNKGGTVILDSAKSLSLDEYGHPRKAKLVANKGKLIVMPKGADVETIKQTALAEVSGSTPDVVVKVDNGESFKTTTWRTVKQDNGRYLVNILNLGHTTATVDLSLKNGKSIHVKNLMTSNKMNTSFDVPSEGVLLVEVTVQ
T4 sequence (A0ABQ6RIJ3 entry or part of it C84S): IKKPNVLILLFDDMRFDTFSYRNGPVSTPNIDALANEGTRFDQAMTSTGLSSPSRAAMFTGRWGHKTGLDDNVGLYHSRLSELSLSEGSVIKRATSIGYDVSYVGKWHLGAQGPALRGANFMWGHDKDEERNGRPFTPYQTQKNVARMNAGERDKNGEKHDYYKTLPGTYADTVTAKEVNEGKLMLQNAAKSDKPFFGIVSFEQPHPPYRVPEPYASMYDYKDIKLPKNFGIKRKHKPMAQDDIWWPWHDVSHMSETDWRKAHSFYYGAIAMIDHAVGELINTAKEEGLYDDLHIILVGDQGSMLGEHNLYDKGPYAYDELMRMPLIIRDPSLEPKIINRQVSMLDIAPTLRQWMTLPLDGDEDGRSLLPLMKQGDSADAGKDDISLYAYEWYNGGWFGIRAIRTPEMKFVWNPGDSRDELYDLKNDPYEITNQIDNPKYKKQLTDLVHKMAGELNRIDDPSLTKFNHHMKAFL
T3 sequence (A0ABQ6RIU8 entry or part of it): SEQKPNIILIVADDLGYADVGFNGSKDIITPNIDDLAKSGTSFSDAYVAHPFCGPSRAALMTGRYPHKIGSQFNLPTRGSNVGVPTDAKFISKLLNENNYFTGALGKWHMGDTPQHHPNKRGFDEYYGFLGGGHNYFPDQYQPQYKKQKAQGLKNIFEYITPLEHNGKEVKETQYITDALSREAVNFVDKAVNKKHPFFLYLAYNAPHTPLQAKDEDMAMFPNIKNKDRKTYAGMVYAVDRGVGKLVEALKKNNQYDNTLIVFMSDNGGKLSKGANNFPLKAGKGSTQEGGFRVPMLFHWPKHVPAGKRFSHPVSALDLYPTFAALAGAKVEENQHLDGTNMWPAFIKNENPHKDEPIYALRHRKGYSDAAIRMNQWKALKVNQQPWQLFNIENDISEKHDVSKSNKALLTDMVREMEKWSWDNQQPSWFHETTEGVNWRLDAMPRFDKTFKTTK

As to `O=S(=O)(O)O[C@@H]1[C@H](O[C@H]2O[C@@H]3CO[C@H]([C@H]2O)[C@H]3O[C@@H]2O[C@H](CO)[C@H](O)[C@H](O[C@H]3O[C@@H]4CO[C@@H]([C@H]4O)[C@H]3O)[C@H]2O)[C@@H](O)C(O)O[C@@H]1CO` (stereo partly drawn) [β/κ-NC4, β/κ-neocarratetraose], the “thin layer chromatography of products” value in experiment [1] was “Using TLC we found activity on hybrid β/κ-neocarratetraose (β/κ-NC4)”; in experiment [2], “has the same enzymatic activity as GH167 (Fig. 5a)”.

Regarding “DauA, 3,6-anhydro-D-galactose dehydrogenase from Pseudoalteromonas fuliginea PS47 (enzyme)”, the stoichiometry N in experiment [3] stood at 2.

Consider “S1_19B, exo-G4S κ-carrageenan sulfatase from Pseudoalteromonas fuliginea PS47 (enzyme)”, for which the stoichiometry N in experiment [4] and in experiment [5] was 2 each time.

As to `O=S(=O)(O)O[C@@H]1[C@H](O[C@H]2O[C@@H]3CO[C@@H]([C@H]3O)[C@H]2OS(=O)(=O)O)[C@@H](O)[C@H](O[C@@H]2[C@@H]3OC[C@H]2O[C@H](O[C@H]2[C@@H](OS(=O)(=O)O)[C@@H](CO)OC(O)[C@@H]2O)[C@@H]3OS(=O)(=O)O)O[C@@H]1CO` (some centres unmarked) [ι-NC4, ι-neocarratetraose], in experiment [6], the “product analysis, details in supplement” value is recorded as “can remove the 4-sulfate from the G4S residue that is adjacent to the non-reducing end”. The “crystal structure of the complex” value is reported as “structural analysis of the S1_NC C84S mutant in complex with ι-NC4” in experiment [7] and “the structure of this enzyme in complex with ι-NC4 revealed the ability of the enzyme to bind” in experiment [8].
